# Source: patent US20110218107A1 (priority 2010, published 2011)
# Like-named read-outs stand apart in the source and are kept apart here.
# Assays:
# [1] = system: vines; conditions: cited from earlier work
# [2] = system: tomato plants of the cultivar "Harzfeuer"; test: Greenhouse test tomato under zinc deficiency: plant weight and plant height; type: in vivo; conditions: 0% Zn supply
# Procedure: (§1) Greenhouse experiments (Examples A and B) were carried out to evaluate the effect of fungicide applications on the growth and development of plants cultivated under Zn deficiency, in particular the effect of Propineb and Mancozeb on the growth and development of banana and tomato plants. Banana plants and tomato plants of the cultivar “Harzfeuer” were cultivated on rock wool at different zinc regimes, 100% and 0% zinc level, with and without Propineb or Mancozeb applications.
# (§2) Tomato on rock wool has been sowed and approximately after 3 weeks, the plants have been transferred to rock wool bags. After the specified intervals the plants have been treated either 2 times preventive or one time curative and have been fertilized with a modified Hoagland solution which contained 100% or 0% zinc and having the composition as given below. Propineb and Mancozeb were applied. The fertilization was carried out in combination with the irrigation, using a drip application system.
# Propineb has been applied through spray application of commercially available Antracol 70WG solution (conc. 0.15% Propineb). Mancozeb has been applied as commercially available Dithane NeoTec® 75WG (conc. 0.15% Mancozeb). Preventive treatments with Propineb or Mancozeb were carried out 27 days and 57 days (Treatment No. 3 and Treatment No. 5) after sowing. Curative applications of Propineb or Mancozeb were carried out 95 days (Treatment No. 4 and Treatment No. 6) after sowing according to the following regime:
# The effect of preventive and curative treatments of Propineb and Mancozeb on the growth and development of tomato plants was evaluated by measuring the plant weight and plant height. The assessment of Treatment No. 3 and Treatment No. 5 was carried out 95 days after sowing. The morphological assessment of Treatment No. 4 and Treatment No. 6 was carried out 132 days after sowing.
# [3] = system: banana plants; test: Greenhouse test banana under zinc deficiency: leaf size and leaf weight; type: in vivo; conditions: 0% Zn supply
# Procedure: as §1
# as §2, with “Banana on” for “Tomato on”, “treated” for “treated either”, “curative with Propineb and/or” for “curative and”, “below.” for “below. Propineb and Mancozeb were applied.”
# (§3) Propineb has been applied through spray application of commercially available Antracol 70WG solution (conc. 0.15% Propineb). Preventive treatments with Propineb were carried out 34 days and 57 days (Treatment No. 3) after sowing. Curative application of Propineb was carried out 85 days (Treatment No. 4) after sowing according to the following regime:
# (§4) The effect of preventive and curative Propineb treatments on the growth and development of banana plants was evaluated by measuring the leaf size, leaf weight and the chlorophyll a fluorescence using a Handy PEA system. The assessment of Treatment No. 3 was carried out 101 days after sowing. The morphological assessment of Treatment No. 4 was carried out 121 days after sowing. The chlorophyll a fluorescence was measured 13 and 28 days after the curative application of Propineb.
# [4] = system: banana plants; test: Greenhouse test banana under zinc deficiency: chlorophyll a fluorescence (Handy PEA); type: in vivo; conditions: 0% Zn supply, curative treatment
# Procedure: as §1
# as §2, with “Banana on” for “Tomato on”, “treated” for “treated either”, “curative with Propineb and/or” for “curative and”, “below.” for “below. Propineb and Mancozeb were applied.”
# as §3, §4
# Fv/Fm: Fv/Fm is a parameter widely used to indicate the maximum quantum efficiency of photosystem II(PSII) This parameter is widely considered to be a selective indication of plant photosynthetic performance with healthy samples typically achieving a maximum Fv/Fm value of approx. 0.85. Values lower than this will be observed if a sample has been exposed to some type of biotic or abiotic stress factor which has reduced the capacity for photo-chemical quenching of energy within PSII. Fv/Fm is presented as a ratio of variable fluorescence (Fv) over the maximum fluorescence value (Fm). The Performance Index is essentially an indicator of sample vitality. (See e.g. Advanced Techniques in Soil Microbiology, 2007, 11, 319-341; Applied Soil Ecology, 2000, 15, 169-182.)
# [5] = curative spray 95 days after sowing (conc. 0.15%), assessed 132 days after sowing
# [6] = preventive spray 27 and 57 days after sowing (conc. 0.15%), assessed 95 days after sowing
# [7] = curative spray 85 days after sowing (0.15% Propineb), assessed 121 days after sowing
# [8] = preventive spray 34 and 57 days after sowing (0.15% Propineb), assessed 101 days after sowing
# [9] = 1st measurement (13 days after curative application)
# [10] = 2nd measurement (28 days after curative application)
compound,measurement,setting,value
S=C(S)NCCNC(=S)S [Zineb],yield and growth compared to untreated vines,"[1]; vines, ISHS Acta Horticulturae 1987, 199, 157-161",significantly greater yield and growth
O=S(=O)([O-])[O-].[Zn+2] [zinc sulfate],yield and growth compared to untreated vines,[1]; in vivo,significantly greater yield and growth
Mancozeb,Plant weight,[2]; [5],409 g
same,Plant height,[2]; [6],64
same,Plant weight,[2]; [6],249 g
Propineb,Leaf size,[3]; [7],2101 ± 612 cm^2
same,Leaf weight,[3]; [7],90 g
same,Average leaf size,[3]; [8],2062 ± 284 cm^2
same,Average leaf weight,[3]; [8],76 g
same,Fv/Fm,[4]; [9],0.82
same,Performance index,[4]; [9],2.21
same,Fv/Fm,[4]; [10],0.83
same,Performance index,[4]; [10],2.69
same,Plant weight,[2]; [5],568 g
same,Plant height,[2]; [6],76
same,Plant weight,[2]; [6],341 g
